Results published in US9328374B2, “Selective culture medium and method for detecting carbapenem-resistant bacteria in a test sample” (Institut National de la Sante et de la Recherche Medicale …, priority 2011, dated 2016).

What was measured:
K. pneumoniae = assay: MIC of imipenem, ertapenem and meropenem; assay type: cell-based, Klebsiella pneumoniae
C. freundii = assay: MIC of imipenem, ertapenem and meropenem; assay type: cell-based, Citrobacter freundii

## C[C@@H](O)[C@H]1C(=O)N2C(C(=O)O)=C(SCCN=CN)C[C@H]12 [IPM, imipenem]
K. pneumoniae; K. pneumoniae LOU, OXA-48
  MIC: 4 µg/mL
K. pneumoniae; K. pneumoniae MAD (VIM-1 + CTX-M-3)
  MIC: 1 µg/mL
K. pneumoniae; K. pneumoniae MAD, VIM-1+ CTX-M-3
  MIC: 1 µg/mL
K. pneumoniae; K. pneumoniae MEK (CTX-M-15 + SHV-11)
  MIC: 1.5 µg/mL
K. pneumoniae; K. pneumoniae MEK, CTX-M-15 + SHV-11, non-carbapenemase producer, porin deficiency
  MIC: 1.5 µg/mL
K. pneumoniae; K. pneumoniae MUS (KPC-2 + TEM-1 + SHV-11 + SHV-12)
  MIC: 0.75 µg/mL
K. pneumoniae; K. pneumoniae MUS, KPC-2 + TEM-1 + SHV-11 + SHV-12
  MIC: 0.75 µg/mL
K. pneumoniae; K. pneumoniae OM2 (NDM-1 + TEM-1 + CTX-M-3 + SHV-11 + OXA-1)
  MIC: 0.75 µg/mL
K. pneumoniae; K. pneumoniae OM2, NDM-1 + TEM-1 + CTX-M-3 + SHV-11 + OXA-1
  MIC: 0.75 µg/mL
K. pneumoniae; K. pneumoniae OM4, NDM-1 + TEM-1 + CTX-M-15 + SHV-12 + OXA-9
  MIC: 4 µg/mL
K. pneumoniae; K. pneumoniae OM8, NDM-1 + TEM-1 + CTX-M-15 + SHV-11 + OXA-1
  MIC: 2 µg/mL
K. pneumoniae; K. pneumoniae OM11, OXA-48 + TEM-1 + CTX-M-14
  MIC: 0.5 µg/mL
K. pneumoniae; K. pneumoniae OM13, NDM-1 + TEM-1 + CTX-M-15 + SHV-28 + OXA-1 + OXA-9
  MIC: 3 µg/mL
K. pneumoniae; K. pneumoniae OM14, OXA-48 + TEM-1
  MIC: 0.5 µg/mL
K. pneumoniae; K. pneumoniae OM15, NDM-1 + CTX-M-15 + SHV-130 + OXA-1
  MIC: 1.5 µg/mL
K. pneumoniae; K. pneumoniae OM16, NDM-1 + CTX-M-15 + OXA-1 + OXA-181
  MIC: 8 µg/mL
K. pneumoniae; K. pneumoniae OM19, NDM-1 + CTX-M-15 + SHV-12 + OXA-1
  MIC: 4 µg/mL
K. pneumoniae; K. pneumoniae OMA419 (NDM-1 + OXA-1)
  MIC: 1.5 µg/mL
K. pneumoniae; K. pneumoniae OMA419, NDM-1 + OXA-1
  MIC: 1.5 µg/mL
K. pneumoniae; K. pneumoniae OMA601, NDM-1 + CTX-M-15 + OXA-1 + OXA-9
  MIC: >32 µg/mL
K. pneumoniae; K. pneumoniae OMA (OXA-181 + CTX-M-15 + OXA-1)
  MIC: 0.5 µg/mL
K. pneumoniae; K. pneumoniae OMA, OXA-181 + CTXM-15 + OXA-1
  MIC: 0.5 µg/mL
K. pneumoniae; K. pneumoniae RAM (OXA-48)
  MIC: 1 µg/mL
K. pneumoniae; K. pneumoniae RAM, OXA-48
  MIC: 1 µg/mL
K. pneumoniae; K. pneumoniae ROB (OXA-48 + CTX-M-15 + TEM-1)
  MIC: 0.38 µg/mL
K. pneumoniae; K. pneumoniae ROU (OXA-48 + CTX-M-15)
  MIC: 0.5 µg/mL
K. pneumoniae; K. pneumoniae ROU, OXA-48 + CTX-M-15
  MIC: 0.5 µg/mL
K. pneumoniae; K. pneumoniae SCO (OXA-48)
  MIC: 0.5 µg/mL
K. pneumoniae; K. pneumoniae SCO, OXA-48
  MIC: 0.5 µg/mL
K. pneumoniae; K. pneumoniae SHI (CTX-M-15 + TEM-1 + SHV-1)
  MIC: 0.25 µg/mL
K. pneumoniae; K. pneumoniae SHI, CTX-M-15 + TEM-1 + SHV-11, non-carbapenemase producer, porin deficiency
  MIC: 0.25 µg/mL
K. pneumoniae; K. pneumoniae SHM (CTX-M-15 + TEM-1 + SHV-11)
  MIC: 3 µg/mL
K. pneumoniae; K. pneumoniae SHM, CTX-M-15 + TEM-1 + SHV-11, non-carbapenemase producer, porin deficiency
  MIC: 3 µg/mL
K. pneumoniae; K. pneumoniae SIC (OXA-48 + CTX-M-15 + SHV-28)
  MIC: 0.25 µg/mL
K. pneumoniae; K. pneumoniae SIC, OXA-48 + CTX-M-15 + SHV-28
  MIC: 0.25 µg/mL
K. pneumoniae; K. pneumoniae SIM (CTX-M-15 + TEM-1 + SHV-1)
  MIC: 8 µg/mL
K. pneumoniae; K. pneumoniae SIM, CTX-M-15 + TEM-1 + SHV-1, non-carbapenemase producer, porin deficiency
  MIC: 8 µg/mL
K. pneumoniae; K. pneumoniae TAW, IMP-8 + SHV-12
  MIC: 0.5 µg/mL
K. pneumoniae; K. pneumoniae TIK, OXA-48
  MIC: 0.75 µg/mL
K. pneumoniae; K. pneumoniae TUR (IMP-1)
  MIC: 1 µg/mL
K. pneumoniae; K. pneumoniae TUR, IMP-1
  MIC: 1 µg/mL
K. pneumoniae; K. pneumoniae TWA, IMP-8
  MIC: 1 µg/mL
K. pneumoniae; K. pneumoniae UK (NDM-1 + CTX-M-15 + CMY-4 + OXA-1)
  MIC: >32 µg/mL
K. pneumoniae; K. pneumoniae UK, NDM-1 + CTX-M-15 + CMY-4 + OXA-1
  MIC: >32 µg/mL
K. pneumoniae; K. pneumoniae VER, OXA-48 + TEM-1 + CTX-M-15 + SHV-11
  MIC: 0.38 µg/mL
K. pneumoniae; K. pneumoniae VSG (OXA-48 + TEM-1 + CTX-M-15 + OXA-1)
  MIC: 0.75 µg/mL
K. pneumoniae; K. pneumoniae VSG, OXA-48 + TEM-1 + CTX-M-15 + OXA-1
  MIC: 0.75 µg/mL
K. pneumoniae; K. pneumoniae YC, KPC-2 + TEM-1 + SHV-11 + SHV-12 + OXA-9
  MIC: 4 µg/mL
K. pneumoniae; strain K. pneumoniae 7725, SHV-1, non-carbapenemase producer
  MIC: 0.19 µg/mL
K. pneumoniae; strain K. pneumoniae 648236, SHV-2a, non-carbapenemase producer
  MIC: 0.25 µg/mL
K. pneumoniae; strain K. pneumoniae ALE, CTX-M-15 + SHV-1, non-carbapenemase producer
  MIC: 1 µg/mL
K. pneumoniae; strain K. pneumoniae AMS, OXA-48 + TEM-1 + CTX-M-15 + OXA-1
  MIC: 0.5 µg/mL
K. pneumoniae; strain K. pneumoniae BAJ, OXA-48 + TEM-1 + CTX-M-15 + SHV-28
  MIC: 0.5 µg/mL
K. pneumoniae; strain K. pneumoniae BED, CTX-M-15 + TEM-1 + SHV-11, non-carbapenemase producer
  MIC: 1.5 µg/mL
K. pneumoniae; strain K. pneumoniae BEL, OXA-48
  MIC: 1 µg/mL
K. pneumoniae; strain K. pneumoniae BEN, OXA-48 + TEM-1 + CTX-M-15 + SHV-28
  MIC: 0.38 µg/mL
K. pneumoniae; strain K. pneumoniae BER, SHV-28 + TEM-1, non-carbapenemase producer
  MIC: 1 µg/mL
K. pneumoniae; strain K. pneumoniae ELK, OXA-48 + TEM-1 + CTX-M-15 + SHV-11
  MIC: 0.5 µg/mL
K. pneumoniae; strain K. pneumoniae HOL, OXA-181 + CTX-M-15
  MIC: 1 µg/mL
K. pneumoniae; strain K. pneumoniae MUS, KPC-2 + TEM-1 + SHV-11 + SHV-12
  MIC: 0.75 µg/mL
K. pneumoniae; strain K. pneumoniae OM2, NDM-1 + TEM-1 + CTX-M-3 + SHV-11 + OXA-1
  MIC: 0.75 µg/mL
K. pneumoniae; strain K. pneumoniae OMA419, NDM-1 + OXA-1
  MIC: 1.5 µg/mL
K. pneumoniae; strain K. pneumoniae OMA, OXA-181 + CTXM-15 + OXA-1
  MIC: 0.5 µg/mL
K. pneumoniae; strain K. pneumoniae ROU, OXA-48 + CTX-M-15
  MIC: 0.5 µg/mL
K. pneumoniae; strain K. pneumoniae SCO, OXA-48
  MIC: 0.5 µg/mL
K. pneumoniae; strain K. pneumoniae SIC, OXA-48 + CTX-M-15 + SHV-28
  MIC: 0.25 µg/mL
K. pneumoniae; strain K. pneumoniae VSG, OXA-48 + TEM-1 + CTX-M-15 + OXA-1
  MIC: 0.75 µg/mL
C. freundii; C. freundii 1003, CTX-M-15 + TEM-1, non-carbapenemase producer
  MIC: 0.38 µg/mL
C. freundii; C. freundii 7767 (wild type)
  MIC: 0.25 µg/mL
C. freundii; C. freundii 7767, (wild type), non-carbapenemase producer
  MIC: 0.25 µg/mL
C. freundii; C. freundii 10107 (TEM-1 + SHV-12)
  MIC: 0.38 µg/mL
C. freundii; C. freundii 10107, TEM-1 + SHV-12, non-carbapenemase producer
  MIC: 0.38 µg/mL
C. freundii; C. freundii 10135 (CTX-M-15)
  MIC: 0.38 µg/mL
C. freundii; C. freundii 10135, CTX-M-15, non-carbapenemase producer
  MIC: 0.38 µg/mL
C. freundii; C. freundii MAU (Overexpressed AmpC + TEM-3)
  MIC: 1 µg/mL
C. freundii; C. freundii MAU, Overexpressed AmpC + TEM-3, non-carbapenemase producer
  MIC: 1 µg/mL
C. freundii; C. freundii STE (NDM-1 + OXA-1 + OXA-9 + OXA-10 + CTX-M-15 + TEM-1)
  MIC: >32 µg/mL
C. freundii; C. freundii STE, NDM-1 + TEM-1 + CTX-M-15 + VIM-4 + OXA-1 + OXA-9 + OXA-10 + OXA-181
  MIC: >32 µg/mL
C. freundii; strain C. freundii 10107, TEM-1 + SHV-12, non-carbapenemase producer
  MIC: 0.38 µg/mL
C. freundii; strain C. freundii 10135, CTX-M-15, non-carbapenemase producer
  MIC: 0.38 µg/mL
C. freundii; strain C. freundii MAU, Overexpressed AmpC + TEM-3, non-carbapenemase producer
  MIC: 1 µg/mL
